The source of these data is article PMC12408683 (Archives of Toxicology, 2025).

In data set [1] the test system is primary human hepatocytes (PHH). In words: Western blot of γH2AX and p53 in primary human hepatocytes. The following applies: 24 h; for γH2AX induction vs. control: selected concentrations. As to the method: (§1) Both cell lines were cultivated in DMEM high glucose without pyruvate (Gibco, Thermo Fisher Scientific, Waltham MA, USA) supplemented with 10% foetal calf serum (FCS, Pan-Biotech, Aidenbach, Germany) and 1% penicillin/streptomycin (Gibco, Thermo Fisher Scientific, Waltham MA, USA). […] Cryopreserved PHH (BioIVT, Brussels, Belgium) pooled from 10 donors (5 × females, 5 × males) were handled according to the protocol of the manufacturer. […] Cells were then diluted, plated for the respective assays in collagen-coated plates, and allowed to adhere for 3 h.
To this end, 5 × 10^5 cells were seeded in 3.5-cm dishes to adhere overnight. […] Proteins were separated by SDS-PAGE followed by the transfer onto a nitrocellulose membrane using the wet blot method. The successful transfer was confirmed by Ponceau S staining of the membrane before blocking with 5% non-fat dry milk in Tris-buffered saline with Tween-20 (MP-TBS-T). Subsequently, the membrane was incubated with the respective primary antibodies overnight at 4 °C. The membranes were washed three times for 5 min with TBS-T before incubating with the respective secondary antibody coupled with horseradish peroxidase. The detection was carried out using the Western Lightning Plus-ECL reagent (Perkin Elmer, Waltham MA, USA) with the c300 chemiluminescence imager (Azure Biosystems, Dublin CA, USA). The used primary and secondary antibodies are detailed in supplementary Table S3.
For orientation: In western blotting, separated proteins are transferred to a membrane and probed.

Data set [2] has the same test system. In words: Resazurin reduction assay (cytotoxicity) in PHH. The following applies: 24 h. How it is done:
as §1
PHH were seeded in 96-well plates precoated with collagen at a cell density of 7 × 10^4/well, left to adhere for 3 h, and treated as described above for 24 h. After treatment, medium was discarded and replaced by resazurin reaction solution containing 44 µM resazurin in NaCl/Pi buffer (1.1 mM KH2PO4, 154 mM NaCl, and 3.7 mM Na2HPO4∙H2O) diluted 1:10 in medium without FCS and P/S. The cells were then incubated for 1.5 h and fluorescence was measured using a Spark® microplate reader (Tecan, Männedorf, Switzerland) with an excitation at 544 nm and emission at 590 nm. The cell viability was calculated relative to the negative control (set to 100%).
On the technique in general: Resazurin is reduced to fluorescent resorufin, in cell work by metabolically active cells.

In data set [3] the test system is primary rat hepatocytes (PRH). The following applies: read-out: EC50 (cell viability); 24 h. How it is done: The cell viability was calculated relative to the negative control (set to 100%).
The test system of another data set is HepaRG cells and PRH. More on the design: method as in Yang et al. 2020. The following applies: 50 µM ES or 1′OH-ES; ref Yang et al. 2020; cited from earlier work.
For a further data set, the system named is HepG2-CYP1A2 cells. In words: DNA adduct quantification by UHPLC-MS/MS in HepG2-CYP1A2 cells. It counts as cell-based, human. How it is done:
To this end, 6 × 10^6 cells were seeded per 10 cm dish and allowed to attach overnight. […] The pellets were washed with phosphate-buffered saline (PBS) and stored at – 20 °C until further use. DNA was isolated as described previously (Carlsson et al. [2022]) and DNA concentration as well as purity were determined with the NanoDrop ND1000 photometer (Thermo Scientific, Waltham MA, USA). As a next step, 30 µg DNA of each sample was digested overnight at 37 °C with micrococcal nuclease (Worthington, Lakewood NJ, USA) and phosphodiesterase II (Worthington, Lakewood NJ, USA) as reported (Carlsson et al. [2022]). Afterwards ^15N-E3′-N^2-dG (2 nM), ^15N-E3′-N^6-dA (0.5 nM) as well as ^15N-dG (20 µM) (Silantes, München, Germany) were added as internal standards. The isotope-labelled internal DNA adduct standards and external DNA adduct standard were synthesised as previously described (Schumacher et al. [2013]). Subsequently, the samples were incubated overnight at 37 °C with alkaline phosphatase (Sigma-Aldrich, St. Louis MO, USA), followed by precipitation of remaining proteins with ethanol and centrifugation at 20,800 g. The supernatant was narrowed down in a vacuum centrifuge (Eppendorf concentrator plus, Eppendorf, Hamburg, Germany) at 60 °C and 1400 g for 2–4 h and the resulting pellet was dissolved in 75% methanol. After another centrifugation step, the solution was transferred into glass vials with inserts.
The DNA adducts were measured via UHPLC–MS/MS with a multiple reaction method (MRM) using a UHPLC system (Agilent 1290 infinity; Agilent Technologies, Santa Clara CA, USA) consisting of a binary pump (G4220A), an autosampler (G4226A) and a column oven (G1316C). The eluent consisted of 0.1% acetic acid and UHPLC grade methanol. Injection volume was 5 μL and the flow rate was 0.2 mL/min. The gradients are shown in the supporting information, Fig. 2A, B. As a separation column, a Waters XTerraMS C18 2.5 µm (2.1 × 50 mm) was used at 35 °C. The UHPLC was coupled to the Sciex QTrap 5500 MS using a declustering potential of 91 V, an entrance potential of 10 V, a collision energy of 33 V, a collision cell entrance potential of 10 V, curtain gas of 25 psi, an ion spray voltage of 5500 V, a temperature of 550 °C, and an ion source gas of 35 psi as specific mass spectrometry parameters. Measurement was performed with an electron spray ionisation in positive mode using MRM to quantify both adducts. For further quantification of the adduct levels, a standard curve of both adducts was carried along ranging from 60 to 100,000 pM, also containing isotope-labelled standards for reference. Furthermore, the dG-content of each sample was determined via LC–MS/MS with stable isotope dilution analysis to normalise the adduct levels to the overall nucleoside content (Carlsson et al. [2022]; Stegmüller et al. [2018]). The limit of detection (LOD) and the limit of quantification (LOQ) for E3′-N^2-dG and E3′-N^6-dA are provided in supplementary Table S1. The specific compound parameters for both methods are provided in supplementary Table S2.
As benchmark response (BMR) for all concentration–response curves (adducts, micronuclei), a 2.0-fold increase vs. solvent control was used (BMC100, critical effect size = 1). The determined BMC100 and the corresponding upper and lower boundary (BMCU and BMCL, respectively) of the 90% confidence interval (CI) were used for potency comparison.

Another data set relates to HepaRG cells. More on the design: method as in Le Hegarat et al. 2014. The following applies: ref Le Hegarat et al. 2014; cited from earlier work.
In the next data set the test system is rats. More on the design: method as in Nesslany et al. 2010. The following applies: up to 2 g ES/kg bw by oral gavage; ref Nesslany et al. 2010; cited from earlier work.
Where [4] appears, read: endpoint E3′-N^2-dG, BMR 2.0-fold increase, 90% CI, PROAST.

For orientation: EC50 means the concentration needed to bring the measured effect to its halfway point. As for `C=CC(O)c1ccc(OC)cc1` (centres unmarked) [1′OH-ES, 1′-hydroxyestragole], the p53 levels entry in data set [1] is recorded as “slightly declined”. Also, in data set [1], the “γH2AX induction vs. control” value was “threefold”. In addition, the EC50 in data set [2] (read-out: EC50 (cell viability)) came out at 107 µM; in data set [3] it was 23 µM. Further, in the data set with HepaRG cells and PRH, the “E3′-N^2-dG levels vs ES” value was 33–40 fold.
Consider `C=CCc1ccc(OC)cc1` [ES, estragole], for which the “E3′-N^2-dG adducts, change vs maximum level” value in the data set with HepG2-CYP1A2 cells (2 mM ES (highest treatment group), 24 h) is listed as “moderate decline”. Moreover, in the data set with HepG2-CYP1A2 cells (any tested ES concentration (up to 2 mM), 24 h), the “E3′-N^6-dA adduct (minor DNA adduct)” value was “neither quantifiable nor detectable”. Moreover, in the data set with HepG2-CYP1A2 cells (setting [4]), the BMCL stood at 18.9 µM and the BMCU is on record as 104 µM. Also, the BMC100 in the data set with HepG2-CYP1A2 cells (endpoint E3′-N^2-dG, BMR 2.0-fold increase, PROAST) amounted to 63.3 µM. Further, the “γH2AX induction vs. control” value in data set [1] is listed as 1.4 fold. The viability entry in data set [2] (test concentrations up to 5 mM) is reported as “did not affect viability”. In addition, in the data set on HepaRG cells, the “lowest effect concentration for MN formation” value is 1 mM. For the same compound, the “MN levels, study outcome” value in the data set on rats is on record as “negative”.
